Test results taken from patent US20050233904A1, “Herbicide-safener combination” (Bayer CropScience GmbH, priority 2004, published 2005).

Experiments:
Assay type in all cases: in vivo
[1] = tested on: harmful plants such as Sinapis alba, Chrysanthemum segetum, Avena sativa, Stellaria media, Echinochloa crus-galli, Lolium multiflorum, Setaria viridis …; assay: Pre-emergence action against weeds (greenhouse pot test, optical scoring vs untreated controls); conditions: herbicide-safener combination with the safeners dymron (b-14), fenclorim (b-11), cumyluron (b-4), isoxadifen-ethyl (II-9), mefenpyr-diethyl (II-1), cloquintocet-mexyl (III-1), S3-1, h-1, h-2, h-3, dietholate (b-7), disulfoton (b-5), 1,8-naphthalic anhydride (b-1), fluxofenim (b-10), dichlormid (IV-1), benoxacor (IV-2), flurazole (b-12), R-29148 (IV-4); application rate of 100 g or less of herbicid
Excerpt: (§1) Seeds or rhizome pieces of monocotyledonous and dicotyledonous weed plants were placed in sandy loam soil in cardboard pots and covered with soil. The active compounds (A) and (B), formulated in the form of wettable powders or emulsion concentrates, were then applied to the surface of the covering soil in various dosages as an aqueous suspension or emulsion using a water application rate of 600 to 800 I/ha (converted).
After the treatment, the pots were placed in a greenhouse and kept under good growth conditions for the weeds. Optical scoring of the damage to the plants or emerged plants was carried out after emergence of the test plants after a trial period of 3 to 4 weeks, in comparison to untreated controls. As shown by the results, the tested herbicide-safener combinations have good herbicidal pre-emergence activity against a broad spectrum of weed grasses and broad-leaved weeds.

[2] = tested on: harmful plants such as Sinapis alba, Echinochloa crus-galli, Lolium multiflorum, Chrysanthemum segetum, Setaria viridis, Abutilon theophrasti, Amaranthus …; assay: Post-emergence action against weeds (greenhouse pot test, visual scoring vs untreated controls); conditions: herbicide-safener combination with the safeners dymron (b-14), fenclorim (b-11), cumyluron (b-4), isoxadifen-ethyl (II-9), mefenpyr-diethyl (II-1), cloquintocet-mexyl (III-1), S3-1, h-1, h-2, h-3, dietholate (b-7), disulfoton (b-5), 1,8-naphthalic anhydride (b-1), fluxofenim (b-10), dichlormid (IV-1), benoxacor (IV-2), flurazole (b-12), R-29148 (IV-4); treated at three-leaf stage; application rate
Method: (§2) Seeds or rhizome pieces of monocotyledonous and dicotyledonous weeds were placed into sandy loam soil in plastic pots, covered with soil and grown in a greenhouse under good growth conditions. Three weeks after sowing, the test plants were treated at the three-leaf stage. The compounds according to the invention, formulated as wettable powders or as emulsion concentrates, were sprayed onto the green parts of the plants at various dosages using a water application rate of 600 to 800 I/ha (converted). The test plants were stood in the greenhouse under optimum growth conditions for about three to four weeks, and the action of the preparations was then scored visually in comparison to untreated controls. Post-emergence, too, the herbicide-safener combinations according to the invention have good herbicidal activity against a broad spectrum of economically important weed grasses and broad-leaved weeds.

[3] = tested on: crop plants such as cotton, oil seed rape, sugar beet and Gramineae crops such as barley, wheat, rye, millet, corn or rice; conditions: herbicide-safener combination with the safeners dymron (b-14), fenclorim (b-11), cumyluron (b-4), isoxadifen-ethyl (II-9), mefenpyr-diethyl (II-1), cloquintocet-mexyl (III-1), S3-1, h-1, h-2, h-3, dietholate (b-7), disulfoton (b-5), 1,8-naphthalic anhydride (b-1), fluxofenim (b-10), dichlormid (IV-1), benoxacor (IV-2), flurazole (b-12), R-29148 (IV-4); pre-emergence or post-emergence method; score
Excerpt: as §1, §2
In further greenhouse trials, seeds of a relatively large number of crop plants and weeds were placed into sandy loam soil and covered with soil. Some of the pots were immediately treated as described in Section 1, the others were placed in a greenhouse until the plants had developed two to three true leaves and were then sprayed with various dosages of the herbicide-safener combinations according to the invention, as described in Section 2.

Row | SMILES | herbicidal activity against harmful plants, pre-emergence method [1] | herbicidal activity against harmful plants, post-emergence method [2] | damage to crop plants [3]
1 | COc1nc(NC(=O)NS(=O)(=O)c2ncccc2C2=NOCCO2)nc(OC)n1 [Compound I-51] | very good herbicidal activity | very good herbicidal activity | did not cause any damage
2 | CN(C)c1nc(NC(=O)NS(=O)(=O)c2ncccc2C2=NOCCO2)nc(OCC(F)(F)F)n1 [Compound I-142] | very good herbicidal activity | very good herbicidal activity | did not cause any damage
3 | COc1nc(NC(=O)[N-]S(=O)(=O)c2ncccc2C2=NOCCO2)nc(OC)n1.[Na+] [Compound I-52] | very good herbicidal activity | very good herbicidal activity | did not cause any damage
4 | CCOc1cc(Cl)nc(NC(=O)[N-]S(=O)(=O)c2ncccc2C2=NOCCO2)n1.[Na+] [Compound I-22] | very good herbicidal activity | very good herbicidal activity | did not cause any damage
5 | CCOc1cc(Cl)nc(NC(=O)NS(=O)(=O)c2ncccc2C2=NOCCO2)n1 [Compound I-21] | very good herbicidal activity | very good herbicidal activity | did not cause any damage
6 | O=C([N-]S(=O)(=O)c1ncccc1C1=NOCCO1)Nc1nc(Cl)cc(OCC(F)(F)F)n1.[Na+] [Compound I-145] | very good herbicidal activity | very good herbicidal activity | did not cause any damage
7 | CCOc1cc(OC)nc(NC(=O)NS(=O)(=O)c2ncccc2C2=NOCCO2)n1 [Compound I-1] | very good herbicidal activity | very good herbicidal activity | did not cause any damage
8 | CCOc1cc(OCC)nc(NC(=O)[N-]S(=O)(=O)c2ncccc2C2=NOCCO2)n1.[Na+] [Compound I-14] | very good herbicidal activity | very good herbicidal activity | did not cause any damage
9 | COc1cc(C)nc(NC(=O)[N-]S(=O)(=O)c2ncccc2C2=NOCCO2)n1.[Na+] [Compound I-3] | very good herbicidal activity | very good herbicidal activity | did not cause any damage
10 | COc1cc(N(C)C)nc(NC(=O)NS(=O)(=O)c2ncccc2C2=NOCCO2)n1 [Compound I-8] | very good herbicidal activity | very good herbicidal activity | did not cause any damage
11 | COc1cc(OC)nc(NC(=O)[N-]S(=O)(=O)c2ncccc2C2=NOCCO2)n1.[Na+] [Compound I-12] | very good herbicidal activity | very good herbicidal activity | did not cause any damage
12 | Cc1cc(C)nc(NC(=O)NS(=O)(=O)c2ncccc2C2=NOCCO2)n1 [Compound I-23] | very good herbicidal activity | very good herbicidal activity | did not cause any damage
13 | CCOc1nc(Cl)nc(NC(=O)[N-]S(=O)(=O)c2ncccc2C2=NOCCO2)n1.[Na+] [Compound I-70] | very good herbicidal activity | very good herbicidal activity | did not cause any damage
14 | COc1cc(Cl)nc(NC(=O)NS(=O)(=O)c2ncccc2C2=NOCCO2)n1 [Compound I-9] | very good herbicidal activity | very good herbicidal activity | did not cause any damage
15 | COc1cc(Cl)nc(NC(=O)[N-]S(=O)(=O)c2ncccc2C2=NOCCO2)n1.[Na+] [Compound I-10] | very good herbicidal activity | very good herbicidal activity | did not cause any damage
16 | O=C(Nc1nc(Cl)cc(OCC(F)(F)F)n1)NS(=O)(=O)c1ncccc1C1=NOCCO1 [Compound I-143] | very good herbicidal activity | very good herbicidal activity | did not cause any damage
17 | COc1cc(OC)nc(NC(=O)NS(=O)(=O)c2ncccc2C2=NOCCO2)n1 [Compound I-11] | very good herbicidal activity | very good herbicidal activity | did not cause any damage
18 | COc1nc(NC(=O)[N-]S(=O)(=O)c2ncccc2C2=NOCCO2)nc(N(C)C)n1.[Na+] [Compound I-60] | very good herbicidal activity | very good herbicidal activity | did not cause any damage
19 | Cc1cc(Cl)nc(NC(=O)[N-]S(=O)(=O)c2ncccc2C2=NOCCO2)n1.[Na+] [Compound I-30] | very good herbicidal activity | very good herbicidal activity | did not cause any damage
20 | Cc1cc(Cl)nc(NC(=O)NS(=O)(=O)c2ncccc2C2=NOCCO2)n1 [Compound I-29] | very good herbicidal activity | very good herbicidal activity | did not cause any damage
